Read-outs that look alike come from different tables or passages of the source. Marks after values point to notes of the source that are not given here.
[1] = male rats, Group 2, 3 mg/kg/wk, Day 15, vs Group 1
[2] = male rats, Group 3, 3.75/2.5 mg/kg/wk oral, Day 15
[3] = male rats, Group 3, 3.75/2.5 mg/kg/wk, Day 15
[4] = male rats, Group 3, 3.75/2.5 mg/kg/wk, Day 15, vs Group 1
[5] = male rats, Group 4, 4.69/2 mg/kg/wk oral, Day 15, N 2, vs vehicle Group 1
[6] = male rats, Group 4, 4.69/2 mg/kg/wk, Day 15, vs Group 1

SMILES: CCC1(O)C(=O)OCc2c1cc1n(c2=O)Cc2cc3cc4c(cc3nc2-1)OCO4 (stereo not drawn) [FL118]
- #EOS % Diff [1]: −43.40%
- #LYMP % Diff [1]: −13.38%
- #MONO % Diff [1]: −25.17%
- #NEUT % Diff [1]: −34.07%
- #RET % Diff [1]: 53.1%
- % BASO % Diff [1]: −8.3%
- % EOS % Diff [1]: −35.2%
- % LYMP % Diff [1]: 3.7%
- % MONO % Diff [1]: −6.6%
- % NEUT % Diff [1]: −24.1%
- % RET % Diff [1]: 62.09%
- HCT % Diff [1]: −8.0%
- HGB % Diff [1]: −8.9%
- MCHC % Diff [1]: −0.8%
- MCV % Diff [1]: −2.7%
- MPV % Diff [1]: −2.7%
- PLT % Diff [1]: 14%
- RDW % Diff [1]: 15.7%
- WBC % Diff [1]: −16.11%
- ALB, albumin, Mean [2]: 34.1 g/L
- ALP, alkaline phosphatase, Mean [2]: 113 U/L
- ALT, alanine aminotransferase, Mean [2]: 47 U/L
- AST, aspartate aminotransferase, Mean [2]: 104 U/L
- BIL-T, total bilirubin, Mean [2]: 1.83
- CK, creatine kinase, Mean [2]: 296 U/L
- CRE, creatinine, Mean [2]: 19 µmol/L
- Ca, calcium, Mean [2]: 2.41 mmol/L
- GLB, globulin, Mean [2]: 22.0 g/L
- K, potassium, Mean [2]: 5.0 mmol/L
- Na, sodium, Mean [2]: 143 mmol/L
- P, inorganic phosphorus, Mean [2]: 2.38 mmol/L
- TCHO, total cholesterol, Mean [2]: 1.73* mmol/L
- TG, triglyceride, Mean [2]: 0.33 mmol/L
- TP, total protein, Mean [2]: 56.1 g/L
- UREA, urea, Mean [2]: 5.60 mmol/L
- sGLU, glucose, Mean [2]: 10.18 mmol/L
- #BASO Mean [3]: 0.02 10^3/μL
- #EOS Mean [3]: 0.07 10^3/μL
- #LYMP Mean [3]: 8.02 10^3/μL
- #MONO Mean [3]: 0.23 10^3/μL
- #NEUT Mean [3]: 1.04 10^3/μL
- #RET Mean [3]: 342.9 10^9/L
- % BASO Mean [3]: 0.2%
- % EOS Mean [3]: 0.8%
- % LYMP Mean [3]: 84.7%
- % MONO Mean [3]: 2.4%
- % NEUT Mean [3]: 11.2%
- % RET Mean [3]: 4.74%
- HCT Mean [3]: 42.3* %
- HGB Mean [3]: 13.8** g/dL
- MCH Mean [3]: 19.0 pg
- MCHC Mean [3]: 32.6 g/dL
- MCV Mean [3]: 58.2 fL
- MPV Mean [3]: 6.5 fL
- PLT Mean [3]: 1129 10^3/μL
- RDW Mean [3]: 14.1*** %
- WBC Mean [3]: 9.43 10^3/μL
- #EOS % Diff [4]: −30.19%
- #LYMP % Diff [4]: −12.51%
- #MONO % Diff [4]: −18.88%
- #NEUT % Diff [4]: −4.40%
- #RET % Diff [4]: 55.7%
- % EOS % Diff [4]: −22.2%
- % LYMP % Diff [4]: −0.4%
- % MONO % Diff [4]: −10.3%
- % NEUT % Diff [4]: 7.9%
- % RET % Diff [4]: 64.10%
- HCT % Diff [4]: −7.5%
- HGB % Diff [4]: −8.6%
- MCHC % Diff [4]: −1.3%
- MCV % Diff [4]: −2.9%
- PLT % Diff [4]: 10%
- RDW % Diff [4]: 20.5%
- WBC % Diff [4]: −11.98%
- ALB, albumin, % Diff [5]: −28.9%
- ALP, alkaline phosphatase, % Diff [5]: −45%
- ALT, alanine aminotransferase, % Diff [5]: 27.5%
- AST, aspartate aminotransferase, % Diff [5]: 1.54%
- BIL-T, total bilirubin, % Diff [5]: 187.51%
- CK, creatine kinase, % Diff [5]: 13%
- CRE, creatinine, % Diff [5]: −3%
- Ca, calcium, % Diff [5]: −15.35%
- Cl, chloride, % Diff [5]: −3%
- K, potassium, % Diff [5]: 2.6%
- Na, sodium, % Diff [5]: −1%
- P, inorganic phosphorus, % Diff [5]: −13.59%
- TCHO, total cholesterol, % Diff [5]: 9.81%
- TG, triglyceride, % Diff [5]: 52.32%
- TP, total protein, % Diff [5]: −33.1%
- UREA, urea, % Diff [5]: 71.64%
- sGLU, glucose, % Diff [5]: −50.96%
- #BASO % Diff [6]: −58.33%
- #EOS % Diff [6]: −95.28%
- #LYMP % Diff [6]: −57.17%
- #MONO % Diff [6]: −0.35%
- #NEUT % Diff [6]: −19.87%
- #RET % Diff [6]: −87.2%
- % BASO % Diff [6]: −37.5%
- % EOS % Diff [6]: −95.4%
- % LYMP % Diff [6]: −11.9%
- % MONO % Diff [6]: 76.5%
- % NEUT % Diff [6]: 88.7%
- % RET % Diff [6]: −87.53%
- HCT % Diff [6]: 1.7%
- HGB % Diff [6]: 7.1%
- MCHC % Diff [6]: 5.4%
- MCV % Diff [6]: −6.8%
- MPV % Diff [6]: −5.3%
- PLT % Diff [6]: −11%
- RBC % Diff [6]: 8.98%
- RDW % Diff [6]: 4.3%
- WBC % Diff [6]: −52.17%
- NOAEL, females (oral, once weekly): 3 mg/kg/wk
- NOAEL, males (oral, once weekly): 2 mg/kg/wk
